Results published in ChEMBL document CHEMBL1155363, “4,4-Disubstituted cyclohexylamine based CCR5 chemokine receptor antagonists as anti-HIV-1 agents” (Bioorg Med Chem Lett, 2009).

Test system: Human immunodeficiency virus 1
Experiment: Antiviral activity against HIV1 Ba-L infected in HOS cells assessed as inhibition of viral infection
Format: functional, organism-based
Settings: Human immunodeficiency virus 1, Ba-L

Row | Compound | IC50
1 | Cc1nc2ccccc2n1[C@H]1C[C@H]2CC[C@@H](C1)N2CCC[C@]1(c2ccccc2)CC[C@H](NC(=O)c2ccc(Cl)c(S(N)(=O)=O)c2)CC1 | 380 nM
2 | Cc1nc2ccccc2n1[C@H]1C[C@H]2CC[C@@H](C1)N2CC[C@]1(c2ccccc2)CC[C@H](NC(=O)c2ccc(Cl)c(S(N)(=O)=O)c2)CC1 | 58 nM
3 | Cc1nc2ccccc2n1[C@H]1C[C@H]2CC[C@@H](C1)N2[C@]1(C)CC[C@H](NC(=O)c2ccc(Cl)c(S(N)(=O)=O)c2)CC1 | 870 nM
4 | Cc1nc2ccccc2n1[C@H]1C[C@H]2CC[C@@H](C1)N2C[C@H]1CC[C@@H](NC(=O)c2ccc(Cl)c(S(N)(=O)=O)c2)CC1 | > 20000 nM
5 | Cc1nc2ccccc2n1[C@H]1C[C@H]2CC[C@@H](C1)N2CC[C@]1(c2ccccc2)CC[C@H](NC(=O)c2ccc(S(N)(=O)=O)cc2Cl)CC1 | 230 nM
6 | Cc1ccnc(C)c1C(=O)N[C@H]1CC[C@](CCCN2[C@@H]3CC[C@H]2C[C@@H](n2c(C)nc4ccccc42)C3)(c2ccccc2)CC1 | 2190 nM
7 | CNS(=O)(=O)c1cc(Cl)c(C(=O)N[C@H]2CC[C@](CCN3[C@@H]4CC[C@H]3C[C@@H](n3c(C)nc5ccccc53)C4)(c3ccccc3)CC2)cc1F | 510 nM
8 | CNS(=O)(=O)c1cc(C(=O)N[C@H]2CC[C@@H](CN3[C@@H]4CC[C@H]3C[C@@H](n3c(C)nc5ccccc53)C4)CC2)c(Cl)cc1F | > 20000 nM
9 | Cc1nc2ccccc2n1[C@H]1C[C@H]2CC[C@@H](C1)N2CC[C@]1(c2ccccc2)CC[C@H](NC(=O)c2ccc(S(N)(=O)=O)cc2F)CC1 | 1800 nM
10 | Cc1nc2ccccc2n1[C@H]1C[C@H]2CC[C@@H](C1)N2CC[C@]1(c2ccccc2)CC[C@H](NC(=O)c2cc(NS(C)(=O)=O)c(Cl)cc2F)CC1 | 1480 nM
11 | Cc1nc2ccccc2n1[C@H]1C[C@H]2CC[C@@H](C1)N2CC[C@]1(c2ccccc2)CC[C@H](NC(=O)c2cc(S(=O)(=O)NC(C)C)c(Cl)cc2F)CC1 | 590 nM
12 | Cc1nc2ccccc2n1[C@H]1C[C@H]2CC[C@@H](C1)N2[C@]1(C)CC[C@H](NC(=O)c2c(Cl)ccc(S(N)(=O)=O)c2Cl)CC1 | 20000 nM
13 | Cc1ccc(S(N)(=O)=O)c(C)c1C(=O)N[C@H]1CC[C@@](CCN2[C@@H]3CC[C@H]2C[C@@H](n2c(C)nc4ccccc42)C3)(c2ccccc2)CC1 | 2550 nM
14 | Cc1nc2ccccc2n1[C@H]1C[C@H]2CC[C@@H](C1)N2CC[C@]1(c2ccccc2)CC[C@@H](NC(=O)c2ccc(Cl)c(S(N)(=O)=O)c2)CC1 | 1630 nM
15 | Cc1ccc(S(N)(=O)=O)c(C)c1C(=O)N[C@H]1CC[C@](CCN2[C@@H]3CC[C@H]2C[C@@H](n2c(C)nc4ccccc42)C3)(c2ccccc2)CC1 | 1070 nM
16 | Cc1nc2ccccc2n1[C@H]1C[C@H]2CC[C@@H](C1)N2CC[C@]1(c2ccccc2)CC[C@H](NC(=O)c2ccc(F)c(S(N)(=O)=O)c2)CC1 | 480 nM
